pEC50, pIC50: −log10 of the molar value. Read-outs that look alike come from different tables or passages of the source.
Experiments:
[1] = tested on: photoaged skin; conditions: human, topical, literature studies; cited from earlier work
[2] = tested on: human RAR-γ; experiment: RAR-γ transactivation assay (SeAP reporter, COS cells); assay type: cell-based; conditions: for Transactivation % max (γ): relative to all-trans-retinoic acid at same concentration (1,000 nM or 10,000 nM)
Procedure: (§1) Retinoid Receptor Transactivation Assays
(§2) Transactivation assays were performed essentially as described in Apfel et al., supra. For the RAR transcription activation test system, the secreted alkaline phosphatase gene (SeAP) is used as reporter. To have a screening system specific for the transfected receptor, chimeric receptors are used. These contain an estrogen receptor DNA binding domain and therefore recognize the estrogen response element (ERE) which no endogenous RAR's in mammalian cells will recognize.
(§3) The transactivation assay system has been adapted to 96-well plates and most steps are done by a robot. Briefly, on day 1 confluent COS cells are subcultured at an equivalent density onto 96-well plates in DMEM+10% charcoal stripped serum. On day 2 DNA is prepared for transfection by mixing the following: 10 μg vit-TK-SeAP reporter plasmid, 2 μg RAR expression plasmid, 2 μg transfection control plasmid and 30 μl Transfectam (lipopolyamine transfection reagent). Cells are washed twice with serum-free medium and DNA/transfectam mix added. After 1 hour medium is removed and replaced with growth medium containing test retinoids. On day 4 or 5 the culture supernatant is removed, heated to 65° for 5 min to inactivate nonspecific phosphatases, and diluted 1:10 with water. 20 μl samples are added to 100 μl of phosphatase substrate in buffer. After 1 hour at 37° the luminescence is measured in a 96-well luminometer.
(§4) 100 μl of β-galactosidase substrate is added to the adherent cells. Plates are incubated for 1 hour at 37° and the supernatants transferred to separate plates for quantitation of β-galactosidase activity by luminescence measurement. Transactivation results are expressed as the ratio of SeAP/β-galactosidase activity for each well to correct for well-to-well variation in transfection efficiency.
(§5) Data are means of values obtained from two or more individual experiments, rounded off to two significant figures. […] The maximum transactivation activity is determined from the plot where increasing dosage provides little or no additional activity, i.e., where the plot begins to level off. For active retinoids the highest concentration tested is 1000 nM.

[3] = tested on: RAR-β; experiment: RAR-β transactivation assay (SeAP reporter, COS cells); assay type: cell-based, human; conditions: for Transactivation % max (β): relative to all-trans-retinoic acid at same concentration (1,000 nM or 10,000 nM)
Procedure: as §1, §2, §3, §4, §5

[4] = tested on: photodamaged skin; experiment: Measurement of photodamage repair in the hairless mouse model; assay type: in vivo, Hairless mice (female, HRS/J strain); conditions: for Photodamage repair activity (scale 0 to 4): UVB-irradiated, topical in acetone three times per week, three doses
Text: The ability of a composition of the invention to induce repair of photodamaged skin may be determined by any conventional means. One conventional method of determining the ability of a topical composition to repair photodamaged skin is the hairless mouse model described by Kligman et al., supra. […] In this model, repair is defined by the appearance of a zone of normalized dermis extending from the epidermis down to the layer of compressed elastin. The extent of repair is reflected by the width of this zone. […] The average width of the repair zone is then calculated by dividing the area by the length of the histological section that was measured.
The width of the repair zone is […] an activity value of 4.
Measurement of Photodamage Repair
Hairless mice (female, HRS/J strain, Jackson Labs, 5-7 weeks old at the start of the experiments) were housed in yellow light and irradiated three times per week with a bank of 8 Westinghouse Sunlamps (FS120) placed about 20 cm above the animals. Daily doses were 0.03 J/cm^2 for two weeks, 0.06 J/cm2 for two weeks and 0.08 J/cm2 thereafter. The radiation dose is controlled by an International Light Model IL844A Phototherapy Exposure Control and a model SEE240 detector.
To effect repair of the dermal damage, the UVB irradiation was discontinued and the animals were divided into groups of approximately eight and treated three times per week with various concentrations of the retinoids dissolved in acetone. Stock solutions are made up freshly every week in subdued light at concentrations such that the dose is delivered in 100 μl volume and applied topically with a plastic pipette to an area of about 10 cm^2 on the back of the animal. All dosing was done under yellow light. A control group treated with acetone alone was included.
Two-cm strips of dorsal skin were taken longitudinally down the center of the irradiated (and treated) area. Elastin fibers were stained with Luna's aldehyde fuchsin and collagen by Van Gieson. In this model, repair is defined by the appearance of a normalized dermis extending from the epidermis down to the layer of compressed elastin. The extent of repair is reflected by the width of this zone. […] Twenty-four fields each of which, at 100X magnification, represents a section of tissue 0.57 mm long, are examined and the area calculated. The results are reported as the average area per field in mm^2. Thus the average width of the repair zone can be obtained by dividing this average area by 0.57 mm. […] All microscopic fields are included in the calculations of average area (or width). Data are analyzed by Student's t-test.
Compounds are tested at three doses and an approximate ED50 calculated.

[5] = tested on: human RAR-α; experiment: RAR-α transactivation assay (SeAP reporter, COS cells); assay type: cell-based; conditions: for Transactivation % max (α): relative to all-trans-retinoic acid at same concentration (1,000 nM or 10,000 nM)
Procedure: as §1, §2, §3, §4, §5

[6] = target: human RAR-γ; experiment: Binding assay for human RAR-γ (displacement of 3H-retinoic acid); conditions: 3H-retinoic acid displacement, mean of two or more experiments
Procedure: (§6) Binding Assay for Human RAR-α, RAR-β and RAR-γ
(§7) Binding assays were performed essentially as described in Apfel et al., supra. […] Extracts containing the receptors were used in a competitive binding assay which depends upon the ability of increasing concentrations of a retinoid to displace ^3 H-retinoic acid. In a typical assay, 0.2 to 0.4 picomoles of receptors were incubated in 0.2 ml of 50 mM Tris HCl, pH 7.4, 50 mM NaCl, 2 mM EDTA (binding buffer) containing 0.5% gelatin, 1% DMSO, 2-5 nM ^3 H-retinoic acid and various concentrations of unlabelled retinoids. After 3-5 hours at 22° C., 0.15 ml of chilled charcoal/dextran suspension (5% Norit A/0.5% dextran T-40 in binding buffer) were added for 15 min at 4° C. The tubes were centrifuged at 12,000 x g for 15 minutes and the supernates counted. Binding parameters were calculated from competition curves using the Ligand program.
(§8) Data are means of values obtained from two or more individual experiments, rounded off to two significant figures. […] When binding inhibition at 10,000 nM is less than 50%, >10,000 is indicated.

[7] = target: T1, human RAR-β (Homo sapiens, UniProt P10826); experiment: Binding assay for human RAR-β (displacement of 3H-retinoic acid); conditions: 3H-retinoic acid displacement, mean of two or more experiments
T1 sequence (P10826 201-455 limits assumed): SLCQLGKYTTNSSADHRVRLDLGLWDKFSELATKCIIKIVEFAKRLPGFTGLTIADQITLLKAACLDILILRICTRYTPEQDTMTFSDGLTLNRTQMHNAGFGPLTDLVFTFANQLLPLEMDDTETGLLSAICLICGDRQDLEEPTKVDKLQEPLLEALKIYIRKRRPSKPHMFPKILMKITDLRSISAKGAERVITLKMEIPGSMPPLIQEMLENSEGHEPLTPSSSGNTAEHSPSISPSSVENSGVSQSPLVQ
Procedure: as §6, §7, §8

[8] = target: T2, human RAR-α (Homo sapiens, UniProt P10276); experiment: Binding assay for human RAR-α (displacement of 3H-retinoic acid); conditions: 3H-retinoic acid displacement, mean of two or more experiments
T2 sequence (P10276 201-462 limits assumed): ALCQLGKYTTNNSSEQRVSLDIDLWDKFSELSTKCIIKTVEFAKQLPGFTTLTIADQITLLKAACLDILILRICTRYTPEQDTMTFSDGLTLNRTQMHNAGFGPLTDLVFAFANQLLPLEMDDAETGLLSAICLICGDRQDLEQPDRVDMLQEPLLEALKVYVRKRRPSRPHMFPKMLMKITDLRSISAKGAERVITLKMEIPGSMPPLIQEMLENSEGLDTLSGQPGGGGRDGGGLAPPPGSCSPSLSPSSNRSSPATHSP

[9] = RAR-γ, COS cells, 50% of the compound's own maximum, set to highest concentration tested (usually 1000 nM) if no maximum reached, read-out: Transactivation ED50 (γ)
[10] = COS cells, 50% of the compound's own maximum, set to highest concentration tested (usually 1000 nM) if no maximum reached, read-out: Transactivation ED50 (β)
[11] = COS cells, 50% of the compound's own maximum, set to highest concentration tested (usually 1000 nM) if no maximum reached, read-out: Transactivation ED50 (α)

Row | pIC50 [6] | pEC50 [2, 9] | pIC50 [7] | pEC50 [3, 10] | pIC50 [8] | pEC50 [5, 11] | SMILES | Clinical improvement of photodamaged/photoaged skin [1] | pEC50 [2] | Transactivation % max (γ) ([2]; RAR-γ) [%] | pEC50 ([3]; read-out: Transactivation ED50 (β), COS cells, 50% of the compound's own maximum, set to highest concentration tested (usually 1000 nM) if no maximum reached) | Transactivation % max (β) [3] [%] | Photodamage repair activity (scale 0 to 4) [4] | ED50 for photodamage repair ([4]; μg of test compound applied to 10 cm^2 of skin area, standard retinoid) [µg] | pEC50 ([5]; read-out: Transactivation ED50 (α), COS cells, 50% of the compound's own maximum, set to highest concentration tested (usually 1000 nM) if no maximum reached) | Transactivation % max (α) [5] [%]
1 |  |  |  |  |  |  | CC1=C(/C=C/C(C)=C/C=C/C(C)=C\C(=O)O)C(C)(C)CCC1 [B, 13-cis retinoic acid, reference compound] | efficacy of isotretinoin in photodamage has been demonstrated | […] | […] | […] | […] | 2 (an ED50 of 10 μg) | 10 | […] | […]
2 | < 5.00 | 6.00 | < 5.00 | 6.00 | < 5.00 | 6.00 | C/C(=C\c1ccc(S(C)(=O)=O)cc1)c1ccc2c(c1)C(C)(C)CCC2(C)C [G] |  |  | 36 |  | 17 | 3 (an ED50 of 1 μg or less (highly active)) |  |  | 23
3 | 5.70 | 7.54 | 5.03 | 6.82 | < 5.00 | 6.00 | CCCCCOc1cc2c(cc1/C=C/C=C/C(C)=C/C(=O)O)C(C)(C)CCC2(C)C [Q] |  |  | 96 |  | 81 | 4 |  |  | 45
